Literature values in patent US20080011293A1, “Stable Xylometazoline and Oxymetazoline Solution” (priority 1999, published 2008).
Where two headings read alike, the source gives them in different places.

Test system: Pseudomonas aeruginosa

SMILES | concentration above which the inhibitory effect sets in (pH of 5.6 adjusted using HCl and NaOH) | concentration above which the inhibitory effect sets in (pH of 7.4 (neutral)) | concentration required to trigger the inhibitory effect (under acid conditions) [% by weight]
OCC(O)CO [glycerol] | above 25 % by weight | above 30 % by weight | –
OC[C@@H](O)[C@@H](O)[C@H](O)[C@@H](O)CO [sorbitol] | – | identical | 40
